This note sets out measurements from patent publication US20250179033A1 (priority 2021, published 2025).

Assay type in all cases: cell-based
For series [1], the system named is TZM-bl cells. In words: Toxicity assay in TZM-bl cells. As to the method: (§1) Compounds were serially diluted starting with 10 mM stocks in DMSO. DMSO concentrations were kept the same for all dilutions used within an assay (either 0.005% or 0.05% depending on highest concentration used). Duplicate 96-well plates were set up with 25 μL compound dilution, 25 μL virus, and 50 μL TZM-bl cells (2×10^5/mL) with DEAE-dextran and incubated at 37° C. 5% CO2 for 48 hr. All compounds were tested in triplicate, with single wells of efavirenz dilutions on each plate. All plates had 3-5 control wells without compound, 1 control well with no cells, and 1 control well with a highly toxic level of DMSO (9%). Inhibition assays were set up in clear tissue-culture treated plates with lysates moved to black assay plates or were set up in black tissue culture-treated plates. Medium was removed and the cells were lysed with Glo Lysis Buffer (Promega, Madison, Wisconsin, United States of America). Luciferase Assay System reagent (Promega, Madison, Wisconsin, United States of America) was added to cells and relative light units (RLU) was measured using an EnSpire instrument (PerkinElmer, Waltham, Massachusetts, United States of America). Toxicity assays were set up in clear tissue culture-treated plates. CellTiter-Blue Cell Viability Assay reagent (Promega) was added to the wells after 46 hr incubation, followed by 2 hr incubation. Sodium lauryl sulfate was added to 1.5% to stop the reaction and the plates were measured for fluorescence (560 nmEx/590 nmEm) using an EnSpire instrument (PerkinElmer, Waltham, Massachusetts, United States of America).

For series [2], the system named is HIV-1 IIIB A17 variant (Y181C/K103N). Put plainly: HIV inhibition assay in TZM-bl cells, A17 variant. To be noted: Human immunodeficiency virus 1, IIIB, TZM-bl, read-out: IC50 (TZM, A17), Table 3, TZM-bl, ± SEM, minimum 6 replicates. As for the experimental part: (§2) Cells and virus culture: TZM-bl cells (42), HIV-1 IIIB virus (43-45) and HIV-1 IIIB (A17 variant) virus (46) as well are the NNRTI resistant mutants (strain NL4-3) (47) were obtained from the NIH HIV Reagent Program. H9 [derivative of HuT 78]cells (ATCC® HTB176™) were obtained from the American Type Culture Collection (Manassas, Virginia, United States of America). These viruses were grown in H9 cells to high titer, which was tested using a HIV p24 (high sensitivity) The detection kit used was sold under the tradename ALPHALISA® Detection Kit (PerkinElmer, Waltham, Massachusetts, United States of America). The viruses were concentrated using Lenti-X Concentrator (Takara Bio USA, Inc., Mountain View, California, United States of America). Infections of TZM-bl cells with either virus was facilitated with 15 μg/mL DEAE-dextran.
as §1

Series [3] concerns HIV-1 IIIB (wild-type). In words: HIV inhibition assay in TZM-bl cells, wild-type. The following applies: Human immunodeficiency virus 1, IIIB, read-out: IC50 (TZM, WT). As to the method: as §2, §1
The mark [4] stands for this setting: Table 3, TZM-bl, ± SEM, minimum 6 replicates.

By IC50 is commonly meant the concentration that gives 50% inhibition.

Like-named read-outs stand apart in the source and are kept apart here.

`N#Cc1ccc(Nc2nc(N)n(S(=O)(=O)c3ccc4ccccc4c3)n2)cc1Cl` [Compound 3, 4-[[5-amino-1-(2-naphthylsulfonyl)-1,2,4-triazol-3-yl]amino]-2-chloro-benzonitrile]: the “Qualitative Cell Toxicity within inhibition range” value in series [1] (Table 3, TZM-bl) is recorded as “None”. For the same molecule, the concentration for half-maximal inhibition (IC50) was determined as 573 ± 130 nM in series [2] and 1.57 ± 0.19 nM in series [3].

As to `Cc1cc(C#N)ccc1Nc1nc(N)n(S(=O)(=O)c2cccc3cc(C#N)ccc23)n1` [Compound 4, 5-[[5-amino-3-(4-cyano-2-methyl-anilino)-1,2,4-triazol-1-yl]sulfonyl]naphthalene-2-carbonitrile], in series [1], the “Qualitative Cell Toxicity within inhibition range” value is given as “None”. Moreover, the IC50 in series [2] was 287 ± 69.5 nM; in series [3] (setting [4]), 13.8 ± 2.64 nM.

Consider `CC(C)(C)c1ccc(S(=O)(=O)n2nc(Nc3ccc(Cl)cc3)nc2N)cc1` [Compound 6, 1-(4-tert-butylphenyl)sulfonyl-N3-(4-chlorophenyl)-1,2,4-triazole-3,5-diamine], for which the “Qualitative Cell Toxicity within inhibition range” value in series [1] is on record as “None”. The half-inhibitory concentration (IC50) in series [2] is 295 ± 56.5 nM; in series [3] (setting [4]), 70.2 ± 10.5 nM.

Turning to `Nc1nc(Nc2ccc(Cl)cc2)nn1S(=O)(=O)c1ccc(Br)cc1F` [Compound 7, 1-(4-bromo-2-fluoro-phenyl)sulfonyl-N3-(4-chlorophenyl)-1,2,4-triazole-3,5-diamine], the “Qualitative Cell Toxicity within inhibition range” value in series [1] is “None”. Further, the results for the IC50 in series [2] and in series [3] (setting [4]) were 562 nM and 19.2 ± 2.83 nM, respectively.

As to `N#Cc1ccc(Nc2nc(N)n(S(=O)(=O)c3c(Cl)nc4sccn34)n2)cc1` [Compound 8, 4-[[5-amino-1-(6-chloroimidazo[2,1-b]thiazol-5-yl)sulfonyl-1,2,4-triazol-3-yl]amino]-benzonitrile], in series [1], the “Qualitative Cell Toxicity within inhibition range” value is listed as “None”. In addition, the concentration for half-maximal inhibition (IC50) turned out to be 705 ± 1010 nM in series [2] and 1.77 ± 0.327 nM in series [3] (setting [4]).

For the molecule `N#Cc1ccc(Nc2nc(N)n(S(=O)(=O)c3cccc(C#N)c3)n2)cc1` [Compound 9, 3-[[5-amino-3-(4-cyanoanilino)-1,2,4-triazol-1-yl]sulfonyl]benzonitrile], the “Qualitative Cell Toxicity within inhibition range” value in series [1] was “None”. Besides, the concentration for half-maximal inhibition (IC50) was determined as 709 ± 331 nM in series [2] and 105 ± 24.3 nM in series [3] (setting [4]).

Take `N#C/C=C/c1ccc(Nc2nc(N)n(S(=O)(=O)c3cccc4cc(C#N)ccc34)n2)cc1` [Compound 10, 5-[[5-amino-3-[4-[(E)-2-cyanovinyl]anilino]-1,2,4-triazol-1-yl]sulfonyl]naphthalene-2-carbonitrile]: the “Qualitative Cell Toxicity within inhibition range” value in series [1] is “None”. In addition, the 50% inhibitory concentration (IC50) in series [2] was 215 ± 57.4 nM; in series [3] (setting [4]), 1.52 ± 0.307 nM.

For `N#Cc1ccc(Nc2nc(N)n(S(=O)(=O)c3c(Cl)nc4sccn34)n2)cc1Cl` [Compound 11, 4-[[5-amino-1-(6-chloroimidazo[2,1-b]thiazol-5-yl)sulfonyl-1,2,4-triazol-3-yl]amino]-2-chloro-benzonitrile], the “Qualitative Cell Toxicity within inhibition range” value in series [1] (Table 3, TZM-bl) is “Low”. Moreover, the figures for the half-inhibitory concentration (IC50) in series [2] and in series [3] were 175 ± 178 nM and 0.98 ± 0.245 nM, respectively.

With `Cc1nc(C)c(S(=O)(=O)n2nc(Nc3ccc(C#N)c(Cl)c3)nc2N)s1` [Compound 12, 4-[[5-amino-1-(2,4-dimethylthiazol-5-yl)sulfonyl-1,2,4-triazol-3-yl]amino]-2-chloro-benzonitrile], in series [1] (Table 3, TZM-bl), the “Qualitative Cell Toxicity within inhibition range” value is “None”. The IC50 was found to be 306 ± 107 nM in series [2] and 0.879 ± 0.072 nM in series [3].

Consider `N#CCc1ccc(Nc2nc(N)n(S(=O)(=O)c3cccc4cc(C#N)ccc34)n2)cc1` [Compound 13, 5-[[5-amino-3-[4-(cyanomethyl)anilino]-1,2,4-triazol-1-yl]sulfonyl]naphthalene-2-carbonitrile], for which the “Qualitative Cell Toxicity within inhibition range” value in series [1] was “None”. Moreover, the IC50 in series [2] came out at 42.9 ± 34.7 nM; in series [3] (setting [4]) it was 0.277 ± 0.0367 nM.

With `N#CCc1ccc2c(S(=O)(=O)n3nc(Nc4ccc(C#N)c(Cl)c4)nc3N)cccc2c1` [Compound 16, 4-[[5-amino-1-[[6-(cyanomethyl)-1-naphthyl]sulfonyl]-1,2,4-triazol-3-yl]amino]-2-chloro-benzonitrile], in series [1] (Table 3, TZM-bl), the “Qualitative Cell Toxicity within inhibition range” value is listed as “None”. Also, the IC50 in series [2] is 153 ± 59.2 nM; in series [3], 0.598 ± 0.105 nM.

Consider `Cc1nn(C)c(Cl)c1S(=O)(=O)n1nc(Nc2ccc(C#N)c(Cl)c2)nc1N` [Compound 17, 4-[[5-amino-1-(5-chloro-1,3-dimethyl-pyrazol-4-yl)sulfonyl-1,2,4-triazol-3-yl]amino]-2-chloro-benzonitrile], for which the “Qualitative Cell Toxicity within inhibition range” value in series [1] (Table 3, TZM-bl) is recorded as “None”. In addition, the IC50 amounted to 905 ± 392 nM in series [2] and 0.305 ± 0.053 nM in series [3].

In the case of `Nc1nc(Nc2ccc(Cl)c(Cl)c2)nn1S(=O)(=O)c1cccc2ccccc12` [Compound 22, N3-(3,4-dichlorophenyl)-1-(1-naphthylsulfonyl)-1,2,4-triazole-3,5-diamine], the “Qualitative Cell Toxicity within inhibition range” value in series [1] (Table 3, TZM-bl) is on record as “None”. In addition, the half-maximal inhibitory concentration (IC50) is > 1000 nM in series [2] and 4.68 ± 0.572 nM in series [3].

As to `CN(C)c1cccc2c(S(=O)(=O)n3nc(Nc4ccc(Cl)cc4)nc3N)cccc12` [Compound 23, N3-(4-chlorophenyl)-1-[[5-(dimethylamino)-1-naphthyl]sulfonyl]-1,2,4-triazole-3,5-diamine], in series [1], the “Qualitative Cell Toxicity within inhibition range” value is given as “None”. The IC50 in series [2] is > 1000 nM; in series [3] (setting [4]), 10.3 ± 2.01 nM.

In the case of `C=CC(=O)N(C)c1ccc(S(=O)(=O)n2nc(Nc3ccc(C#N)cc3)nc2N)cc1` [Compound 24, N-[4-[[5-amino-3-(4-cyanoanilino)-1,2,4-triazol-1-yl]sulfonyl]phenyl]-N-methyl-prop-2-enamide], the “Qualitative Cell Toxicity within inhibition range” value in series [1] was “None”. In series [3] (setting [4]), the IC50 came to 7.88 ± 0.643 nM.

In the case of `Nc1nc(Nc2ccc(Cl)cc2)nn1S(=O)(=O)c1ccc2cc(Cl)ccc2c1` [Compound 25, 1-[(6-chloro-2-naphthyl)sulfonyl]-N3-(4-chlorophenyl)-1,2,4-triazole-3,5-diamine], the “Qualitative Cell Toxicity within inhibition range” value in series [1] is on record as “None”. In series [3] (setting [4]), the 50% inhibitory concentration (IC50) came out at 4.54 ± 0.33 nM.

For the molecule `C=CC(=O)Nc1cc(C)c(S(=O)(=O)n2nc(Nc3ccc(Cl)cc3)nc2N)c(C)c1` [Compound 26, N-[4-[[5-amino-3-(4-chloroanilino)-1,2,4-triazol-1-yl]sulfonyl]-3,5-dimethyl-phenyl]prop-2-enamide], the “Qualitative Cell Toxicity within inhibition range” value in series [1] was “None”. Further, the concentration for half-maximal inhibition (IC50) in series [3] (setting [4]) came to 5.78 ± 0.476 nM.

For `Cn1cnc(S(=O)(=O)n2nc(Nc3ccc(Cl)cc3)nc2N)c1` [Compound 28, N3-(4-chlorophenyl)-1-(1-methylimidazol-4-yl)sulfonyl-1,2,4-triazole-3,5-diamine], the “Qualitative Cell Toxicity within inhibition range” value in series [1] is “None”. In series [3] (setting [4]), the half-inhibitory concentration (IC50) was found to be 83.7 ± 19.3 nM.

As for `Nc1nc(Nc2ccc(Cl)cc2)nn1S(=O)(=O)c1cnc(Cl)c(Br)c1` [Compound 29, 1-[(5-bromo-6-chloro-3-pyridyl)sulfonyl]-N3-(4-chlorophenyl)-1,2,4-triazole-3,5-diamine], in series [1], the “Qualitative Cell Toxicity within inhibition range” value was “None”. The IC50 in series [3] (setting [4]) came to 14.3 ± 7.27 nM.

Turning to `Nc1nc(Nc2ccc(Cl)cc2)nn1S(=O)(=O)c1ccc(-c2ccc(F)cc2)cc1` [Compound 30, N3-(4-chlorophenyl)-1-[4-(4-fluorophenyl)phenyl]sulfonyl-1,2,4-triazole-3,5-diamine], the “Qualitative Cell Toxicity within inhibition range” value in series [1] is reported as “None”. In series [3] (setting [4]), the half-inhibitory concentration (IC50) is 21.5 ± 4.42 nM.

As to `Cc1cc(C)c(Nc2nc(N)n(S(=O)(=O)c3ccc(Br)c(C)c3)n2)c(C)c1` [Compound 31, 1-(4-bromo-3-methyl-phenyl)sulfonyl-N3-(2,4,6-trimethylphenyl)-1,2,4-triazole-3,5-diamine], the “Qualitative Cell Toxicity within inhibition range” value in series [1] is “None”. Also, the 50% inhibitory concentration (IC50) in series [3] (setting [4]) was 19.4 ± 3.67 nM.

With `CC(=O)N1CCc2cc(S(=O)(=O)n3nc(Nc4ccc(Cl)cc4)nc3N)ccc21` [Compound 34, 1-[5-[[5-amino-3-(4-chloroanilino)-1,2,4-triazol-1-yl]sulfonyl]indolin-1-yl]ethanone], the “Qualitative Cell Toxicity within inhibition range” value in series [1] is “None”. In series [3] (setting [4]), the IC50 came to 92.6 ± 15.5 nM.

In the case of `Nc1nc(Nc2ccc(Cl)cc2)nn1S(=O)(=O)CCN1C(=O)c2ccccc2C1=O` [Compound 35, 2-[2-[[5-amino-3-(4-chloroanilino)-1,2,4-triazol-1-yl]sulfonyl]ethyl]isoindoline-1,3-dione], in series [1], the “Qualitative Cell Toxicity within inhibition range” value is “None”. In series [3] (setting [4]), the IC50 stood at 14.3 ± 7.27 nM.
